The subject of this assay is RAW 264.7 cells. Nature of the assay: Quantitative cell-permeability of FITC-labeled aMTD- or rPeptide-fused CRA recombinant proteins by flow cytometry. Particulars: for Relative Ratio to aMTD AVE: cell-permeability of rPeptide relative to the average of 240 aMTDs. In kind it is cell-based. An excerpt: The aMTDs and rPeptides were fluorescently labeled and compared based on the critical factors for cell-permeability by using flow cytometry and confocal laser scanning microscopy (FIG. 5 to 8). The cellular uptake of the peptide-fused non-functional cargo recombinant proteins could quantitatively be evaluated in flow cytometry, while confocal laser scanning microscopy allows intracellular uptake to be assessed visually. The analysis included recombinant proteins fused to a negative control [rP38] that has opposite characteristics (hydrophilic and aromatic sequence: YYNQSTCGGQCY) to the aMTDs (hydrophobic and aliphatic sequences). Relative cell-permeability (relative fold) of aMTDs to the negative control was also analyzed (TABLE 39 and FIG. 9).
Geometric means of negative control (histidine-tagged rP38-fused CRA recombinant protein) subtracted by that of naked protein (histidine-tagged CRA protein) lacking any peptide (rP38 or aMTD) was standardized as relative fold of 1.
For quantitative cell-permeability, the aMTD- or rPeptide-fused recombinant proteins were conjugated to fluorescein isothiocyanate (FITC) according to the manufacturer's instructions (Sigma-Aldrich, St. Louis, Mo.). RAW 264.7 cells were treated with 10 μM FITC-labeled recombinant proteins for 1 hour at 37° C., washed three times with cold PBS, treated with 0.25% tripsin/EDTA (Sigma-Aldrich, St. Louis, Mo.) for 20 minutes at 37° C. to remove cell-surface bound proteins. Cell-permeability of these recombinant proteins were analyzed by flow cytometry (Guava, Millipore, Darmstadt, Germany) using the FlowJo cytometric analysis software (FIG. 5 to 6). The relative cell-permeability of aMTDs were measured and compared with the negative control (rP38) and reference hydrophobic CPPs (MTM12 and MTD85) (TABLE 47).
(In flow cytometry, cells or beads pass a laser one at a time.)

Where [1] appears, read: cell-permeability of aMTD-fused CRA recombinant protein relative to negative control rP38 (A type).
The mark [2] stands for this setting: cell-permeability relative to reference CPP MTD85 (C type).
Setting [3] is: cell-permeability relative to reference CPP MTM12 (B type).
Where [4] appears, read: cell-permeability of aMTD-fused CRA recombinant protein relative to negative control (A: rP38).
The mark [5] stands for this setting: cell-permeability of aMTD-fused CRA recombinant protein relative to reference CPP (B: MTM12).
Where [6] appears, read: cell-permeability of aMTD-fused CRA recombinant protein relative to reference CPP (C: MTD85).

The results in this text go back to US10323063B2, “Advanced macromolecule transduction domain (aMTD) sequences for improvement of cell-permeability, polynucleotides encoding the same, method to identify the unique features of aMTDs comprising the same, method to develop the aMTD sequences comprising the same” (CELLIVERY THERAPEUTICS, INC., priority 2014, dated 2019).

As to “22 (AVVLVPVLAAAP; Advanced Macromolecule Transduction Domain (aMTD) Sequences for Improvement of Cell-Permeability) [compound 22]”, under setting [1], the “Relative Ratio (Fold) A” value was 3.1 Fold. The “Relative Ratio (Fold) C” value under setting [2] is reported as 1.1 Fold. Also, the “Relative Ratio (Fold) B” value under setting [3] was determined as 2.1 Fold.

For the substance “23 (VVLVLPAAAAVP; Advanced Macromolecule Transduction Domain (aMTD) Sequences for Improvement of Cell-Permeability) [compound 23]”, the “Relative Ratio (Fold) A” value under setting [1] worked out at 4.0 Fold. For the same substance, the “Relative Ratio (Fold) C” value under setting [2] is given as 1.3 Fold. The “Relative Ratio (Fold) B” value under setting [3] was 2.6 Fold.

“42 (VAALPVVAVVAP; Advanced Macromolecule Transduction Domain (aMTD) Sequences for Improvement of Cell-Permeability) [compound 42]”: under setting [1], the “Relative Ratio (Fold) A” value is 2.5 Fold. Besides, under setting [2], the “Relative Ratio (Fold) C” value came out at 0.8 Fold. Also, the “Relative Ratio (Fold) B” value under setting [3] was found to be 1.7 Fold.

On to “44 (ALAVPVALLVAP; Advanced Macromolecule Transduction Domain (aMTD) Sequences for Improvement of Cell-Permeability) [compound 44]”, for which the “Relative Ratio (Fold) A” value under setting [1] is 1.6 Fold. For the same substance, under setting [2], the “Relative Ratio (Fold) C” value was 0.5 Fold. Also, under setting [3], the “Relative Ratio (Fold) B” value is given as 1.1 Fold.

Take 49 (VVPAAPAVPVVP) [compound 49]: the “Relative Ratio to aMTD AVE” value was found to be 0.18.

On to 57 (QNNCNTSSQGGG) [compound 57], for which the “Relative Ratio to aMTD AVE” value is reported as 0.06.

For “63 (AALLVPALVAVP; Advanced Macromolecule Transduction Domain (aMTD) Sequences for Improvement of Cell-Permeability) [compound 63]”, the “Relative Ratio (Fold) A” value under setting [1] is listed as 1.9 Fold. Under setting [2], the “Relative Ratio (Fold) C” value was 0.7 Fold. Also, under setting [3], the “Relative Ratio (Fold) B” value was found to be 1.3 Fold.

On to “81 (AALLPALAALLP; Advanced Macromolecule Transduction Domain (aMTD) Sequences for Improvement of Cell-Permeability) [compound 81]”, for which, under setting [1], the “Relative Ratio (Fold) A” value was 6.9 Fold. The “Relative Ratio (Fold) C” value under setting [2] is reported as 2.3 Fold. Also, the “Relative Ratio (Fold) B” value under setting [3] came to 4.6 Fold.

Take “101 (LVALAPVAAVLP; Advanced Macromolecule Transduction Domain (aMTD) Sequences for Improvement of Cell-Permeability) [compound 101]”: the “Relative Ratio (Fold) A” value under setting [1] stood at 4.5 Fold. The “Relative Ratio (Fold) C” value under setting [2] is on record as 1.5 Fold. In addition, the “Relative Ratio (Fold) B” value under setting [3] is 3.0 Fold.

For “102 (LALAPAALALLP; Advanced Macromolecule Transduction Domain (aMTD) Sequences for Improvement of Cell-Permeability) [compound 102]”, the “Relative Ratio (Fold) A” value under setting [1] is 1.4 Fold. In addition, the “Relative Ratio (Fold) C” value under setting [2] is listed as 0.5 Fold. In addition, the “Relative Ratio (Fold) B” value under setting [3] amounted to 0.9 Fold.

Regarding “103 (ALIAAPILALAP; Advanced Macromolecule Transduction Domain (aMTD) Sequences for Improvement of Cell-Permeability) [compound 103]”, the “Relative Ratio (Fold) A” value under setting [1] was determined as 2.1 Fold. For the same substance, the “Relative Ratio (Fold) C” value under setting [2] came out at 0.7 Fold. Also, under setting [3], the “Relative Ratio (Fold) B” value came to 1.4 Fold.

“104 (AVVAAPLVLALP; Advanced Macromolecule Transduction Domain (aMTD) Sequences for Improvement of Cell-Permeability) [compound 104]”: the “Relative Ratio (Fold) A” value under setting [1] was 7.3 Fold. Further, under setting [2], the “Relative Ratio (Fold) C” value is on record as 2.5 Fold. The “Relative Ratio (Fold) B” value under setting [3] turned out to be 4.9 Fold.

As for “123 (AAIIVPAALLAP; Advanced Macromolecule Transduction Domain (aMTD) Sequences for Improvement of Cell-Permeability) [compound 123]”, the “Relative Ratio (Fold) A” value under setting [1] stood at 2.9 Fold. In addition, the “Relative Ratio (Fold) C” value under setting [2] turned out to be 1.0 Fold. Besides, the “Relative Ratio (Fold) B” value under setting [3] was found to be 2.0 Fold.

In the case of “144 (VLAIVPAVALAP; Advanced Macromolecule Transduction Domain (aMTD) Sequences for Improvement of Cell-Permeability) [compound 144]”, the “Relative Ratio (Fold) A” value under setting [1] amounted to 8.8 Fold. For the same substance, the “Relative Ratio (Fold) C” value under setting [2] is 3.0 Fold. For the same substance, the “Relative Ratio (Fold) B” value under setting [3] is listed as 5.9 Fold.

In the case of “162 (AVVALPAALIVP; Advanced Macromolecule Transduction Domain (aMTD) Sequences for Improvement of Cell-Permeability) [compound 162]”, the “Relative Ratio (Fold) A” value under setting [1] is on record as 8.2 Fold. Further, the “Relative Ratio (Fold) C” value under setting [2] was 2.8 Fold. For the same substance, under setting [3], the “Relative Ratio (Fold) B” value is 5.5 Fold.

On to “163 (LALVLPAALAAP; Advanced Macromolecule Transduction Domain (aMTD) Sequences for Improvement of Cell-Permeability) [compound 163]”, for which, under setting [1], the “Relative Ratio (Fold) A” value is given as 4.1 Fold. Further, under setting [2], the “Relative Ratio (Fold) C” value worked out at 1.4 Fold. For the same substance, the “Relative Ratio (Fold) B” value under setting [3] stood at 2.4 Fold.

Regarding “164 (LAAVLPALLAAP; Advanced Macromolecule Transduction Domain (aMTD) Sequences for Improvement of Cell-Permeability) [compound 164]”, the “Relative Ratio (Fold) A” value under setting [1] worked out at 8.2 Fold. In addition, the “Relative Ratio (Fold) C” value under setting [2] is 2.8 Fold. Besides, the “Relative Ratio (Fold) B” value under setting [3] was determined as 5.5 Fold.

For “165 (ALAVPVALAIVP; Advanced Macromolecule Transduction Domain (aMTD) Sequences for Improvement of Cell-Permeability) [compound 165]”, under setting [4], the “Relative Ratio (Fold) A” value came out at 19.8 Fold. Also, under setting [5], the “Relative Ratio (Fold) B” value is recorded as 13.2 Fold. The “Relative Ratio (Fold) C” value under setting [6] is on record as 6.7 Fold.

With “204 (LIAALPAVAALP; Advanced Macromolecule Transduction Domain (aMTD) Sequences for Improvement of Cell-Permeability) [compound 204]”, the “Relative Ratio (Fold) A” value under setting [1] came to 2.2 Fold. The “Relative Ratio (Fold) C” value under setting [2] was 0.8 Fold. Besides, the “Relative Ratio (Fold) B” value under setting [3] was found to be 1.5 Fold.

Take “205 (ALALVPAIAALP; Advanced Macromolecule Transduction Domain (aMTD) Sequences for Improvement of Cell-Permeability) [compound 205]”: the “Relative Ratio (Fold) A” value under setting [1] turned out to be 2.6 Fold. The “Relative Ratio (Fold) C” value under setting [2] is 0.9 Fold. Also, the “Relative Ratio (Fold) B” value under setting [3] is reported as 1.7 Fold.

As for “224 (ILAAVPIALAAP; Advanced Macromolecule Transduction Domain (aMTD) Sequences for Improvement of Cell-Permeability) [compound 224]”, under setting [4], the “Relative Ratio (Fold) A” value is 15.8 Fold. Besides, under setting [5], the “Relative Ratio (Fold) B” value is 10.6 Fold. The “Relative Ratio (Fold) C” value under setting [6] stood at 5.3 Fold.

On to “285 (AIVLLPAAVVAP; Advanced Macromolecule Transduction Domain (aMTD) Sequences for Improvement of Cell-Permeability) [compound 285]”, for which the “Relative Ratio (Fold) B” value under setting [5] is reported as 8.9 Fold.

With “363 (AVLAVAPALIVP; Advanced Macromolecule Transduction Domain (aMTD) Sequences for Improvement of Cell-Permeability) [compound 363]”, the “Relative Ratio (Fold) A” value under setting [4] was found to be 14.7 Fold. For the same substance, the “Relative Ratio (Fold) B” value under setting [5] amounted to 9.8 Fold. Also, under setting [6], the “Relative Ratio (Fold) C” value is 4.9 Fold.

For “442 (ALAALVPAVLVP; Advanced Macromolecule Transduction Domain (aMTD) Sequences for Improvement of Cell-Permeability) [compound 442]”, the “Relative Ratio (Fold) B” value under setting [5] is 13.6 Fold.

Regarding “481 (AIAIAIVPVALP; Advanced Macromolecule Transduction Domain (aMTD) Sequences for Improvement of Cell-Permeability) [compound 481]”, under setting [4], the “Relative Ratio (Fold) A” value stood at 34.3 Fold. In addition, the “Relative Ratio (Fold) B” value under setting [5] was determined as 23.0 Fold. Besides, under setting [6], the “Relative Ratio (Fold) C” value turned out to be 11.6 Fold.

With “484 (LAVVLAAPAIVP; Advanced Macromolecule Transduction Domain (aMTD) Sequences for Improvement of Cell-Permeability) [compound 484]”, under setting [4], the “Relative Ratio (Fold) A” value is listed as 15.6 Fold.

Regarding “501 (VIVALAVPALAP; Advanced Macromolecule Transduction Domain (aMTD) Sequences for Improvement of Cell-Permeability) [compound 501]”, the “Relative Ratio (Fold) C” value under setting [6] is recorded as 7.3 Fold.
